For the assay, the target named is T1, Histone deacetylase 11 (Homo sapiens, UniProt Q96DB2).
T1 sequence (Q96DB2 whole entry): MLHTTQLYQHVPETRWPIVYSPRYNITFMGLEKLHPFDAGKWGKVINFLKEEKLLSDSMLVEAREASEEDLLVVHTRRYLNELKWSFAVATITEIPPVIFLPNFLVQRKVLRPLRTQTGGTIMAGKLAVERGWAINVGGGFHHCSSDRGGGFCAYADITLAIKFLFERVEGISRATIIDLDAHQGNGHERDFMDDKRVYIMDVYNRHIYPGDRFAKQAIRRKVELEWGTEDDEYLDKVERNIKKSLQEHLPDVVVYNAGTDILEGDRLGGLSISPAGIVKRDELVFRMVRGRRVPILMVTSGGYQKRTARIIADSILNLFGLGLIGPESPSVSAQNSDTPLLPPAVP
Nature of the assay: Inhibition of His-tagged human HDAC11 expressed in Sf9 cells using Ac-Arg-Gly-Lys(Ac)-AMC as substrate by fluorometric assay.

For one molecule, IC50 results are on record in ChEMBL document CHEMBL3792380, “A sub-milligram-synthesis protocol for in vitro screening of HDAC11 inhibitors” (Bioorg Med Chem Lett, 2016).

In turn, `O=C(/C=C/c1cn([C@H]2C[C@@H](CO)N(Cc3ccccc3)C2)nn1)NO` gave an IC50 of 1200 nM.
